These results are taken from patent US20140045823A1 (Neurocrine Biosciences, Inc., priority 2012, published 2014).

The assay concerns the target T1, human GPR119 (Homo sapiens, UniProt Q8TDV5).
T1 construct: expression vector for human GPR119 cDNA (Acc. No. NP_848566); expressed in transfected cells; Min-6/hGPR119
T1 sequence (Q8TDV5 1-335): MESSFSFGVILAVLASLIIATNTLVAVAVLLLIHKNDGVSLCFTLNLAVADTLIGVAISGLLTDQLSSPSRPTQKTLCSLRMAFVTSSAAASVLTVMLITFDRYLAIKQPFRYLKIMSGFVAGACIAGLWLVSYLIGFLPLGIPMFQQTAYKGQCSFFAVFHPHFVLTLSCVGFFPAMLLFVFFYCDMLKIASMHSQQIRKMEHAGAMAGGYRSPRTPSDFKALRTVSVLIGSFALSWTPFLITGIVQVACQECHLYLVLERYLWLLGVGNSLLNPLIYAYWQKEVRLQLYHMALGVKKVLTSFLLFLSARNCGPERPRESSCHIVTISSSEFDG
The experiment in a line: AlphaScreen cAMP assay in MIN6 cells stably transfected with human GPR119. The assay is classed as cell-based. As to conditions: Min-6/hGPR119 cells, 45 min at room temperature. An outline of the steps: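 MIN6 cells stably expressing human GPR119, seeded 10000/well and grown 24 h, were exposed to compound in pH 7.4 buffer with 0.5 mM IBMX, 0.1% BSA and 1% DMSO for 45 min at room temperature. Intracellular cAMP then measured by AlphaScreen.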
In general terms: Alpha assays give light when donor and acceptor beads are brought close together.
Take `CC(C)(C)OC(=O)N1CCC(N(C(=O)c2cnc(-c3ccc(C(=O)NCCOC(F)(F)F)c(F)c3)nc2)C2CC2)CC1` [Example 142, 4-(Cyclopropyl-{2-[3-fluoro-4-(2-trifluoromethoxy-ethylcarbamoyl)-phenyl]-pyrimidine-5-carbonyl}-amino)-piperidine-1-carboxylic acid tert-butyl ester]: the EC50 is 0.105 µM. `COc1ccc(NC(=O)c2ccc(-c3ncc(C(=O)N(C4CC4)C4CCN(C(=O)OC(C)(C)C)CC4)cn3)c(F)c2)c(OC)c1` [Example 143, 4-(Cyclopropyl-{2-[4-(2,4-dimethoxy-phenylcarbamoyl)-2-fluoro-phenyl]-pyrimidine-5-carbonyl}-amino)-piperidine-1-carboxylic acid tert-butyl ester] yielded an EC50 of 0.168 µM. With `CC(C)(C)OC(=O)N1CCC(N(C(=O)c2cnc(-c3ccc(C(=O)NCC4(C)CCCO4)c(F)c3)nc2)C2CC2)CC1` (centres unmarked) [Example 144, 4-[Cyclopropyl-(2-{3-fluoro-4-[(2-methyl-tetrahydro-furan-2-ylmethyl)-carbamoyl]-phenyl}-pyrimidine-5-carbonyl)-amino]-piperidine-1-carboxylic acid tert-butyl ester] the figure was 0.23 µM. The compound `CC(C)(C)OC(=O)N1CCC(N(C(=O)c2cnc(-c3ccc(C(=O)NC4CCOCC4)cc3F)nc2)C2CC2)CC1` [Example 145, 4-(Cyclopropyl-{2-[2-fluoro-4-(tetrahydro-pyran-4-ylcarbamoyl)-phenyl]-pyrimidine-5-carbonyl}-amino)-piperidine-1-carboxylic acid tert-buyl ester] yielded an EC50 of 1 µM. For the compound `CC(C)(C)OC(=O)N1CCC(N(C(=O)c2cnc(-c3ccc(C(=O)NCC4CCCO4)c(F)c3)nc2)C2CC2)CC1` (centres unmarked) [Example 146, 4-[Cyclopropyl-(2-{3-fluoro-4-[(tetrahydro-furan-2-ylmethyl)-carbamoyl]-phenyl}-pyrimidine-5-carbonyl)-amino]-piperidine-1-carboxylic acid tert-butyl ester], the response was half-maximal at 0.064 µM (EC50). With `CC(C)(C)OC(=O)N1CCC(N(C(=O)c2cnc(-c3ccc(C(=O)N4CC(F)(F)C4)cc3F)nc2)C2CC2)CC1` [Example 147, 4-(Cyclopropyl-{2-[4-(3,3-difluoro-azetidine-1-carbonyl)-2-fluoro-phenyl]-pyrimidine-5-carbonyl}-amino)-piperidine-1-carboxylic acid tert-butyl ester] the figure was 0.159 µM; with `CN(CC1CCOC1)C(=O)c1ccc(-c2ncc(C(=O)N(C3CC3)C3CCN(C(=O)OC(C)(C)C)CC3)cn2)c(F)c1` (centres unmarked) [Example 148, 4-[Cyclopropyl-(2-{2-fluoro-4-[methyl-(tetrahydro-furan-3-ylmethyl)-carbamoyl]-phenyl}-pyrimidine-5-carbonyl)-amino]-piperidine-1-carboxylic acid tert-butyl ester], 0.395 µM. On to `COCC1CCCCN1C(=O)c1ccc(-c2ncc(C(=O)N(C3CC3)C3CCN(C(=O)OC(C)(C)C)CC3)cn2)cc1F` (centres unmarked) [Example 149, 4-(Cyclopropyl-{2-[3-fluoro-4-(2-methoxymethyl-piperidine-1-carbonyl)-phenyl]-pyrimidine-5-carbonyl}-amino)-piperidine-1-carboxylic acid tert-butyl ester], for which the EC50 was found to be 0.297 µM. The EC50 values of the last two compounds are within 1.5-fold of each other. For the compound `CC(O)c1cccc(NC(=O)c2ccc(-c3ncc(C(=O)N(C4CC4)C4CCN(C(=O)OC(C)(C)C)CC4)cn3)cc2F)c1` (centres unmarked) [Example 150, 4-[Cyclopropyl-(2-{3-fluoro-4-[3-(1-hydroxy-ethyl)-phenylcarbamoyl]-phenyl}-pyrimidine-5-carbonyl)-amino]-piperidine-1-carboxylic acid tert-butyl ester], it took 0.238 µM to reach a half-maximal effect (EC50).

Turning to `CC(C)(C)OC(=O)N1CCC(N(C(=O)c2cnc(-c3ccc(C(=O)NCc4cocn4)c(F)c3)nc2)C2CC2)CC1` [Example 151, 4-[Cyclopropyl-(2-{3-fluoro-4-[(oxazol-4-ylmethyl)-carbamoyl]-phenyl}-pyrimidine-5-carbonyl)-amino]-piperidine-1-carboxylic acid tert-butyl ester], the response was half-maximal at 0.123 µM (EC50). The compound `CC(C)(C)OC(=O)N1CCC(N(C(=O)c2cnc(-c3ccc(C(=O)NCC4CCCCO4)c(F)c3)nc2)C2CC2)CC1` (centres unmarked) [Example 152, 4-[Cyclopropyl-(2-{3-fluoro-4-[(tetrahydro-pyran-2-ylmethyl)-carbamoyl]-phenyl}-pyrimidine-5-carbonyl)-amino]-piperidine-1-carboxylic acid tert-butyl ester] displayed an EC50 of 0.109 µM. The compound `CC(C)(C)OC(=O)N1CCC(N(C(=O)c2cnc(-c3ccc(C(=O)Nc4ccccc4)c(F)c3)nc2)C2CC2)CC1` [Example 153, 4-{Cyclopropyl-[2-(3-fluoro-4-phenylcarbamoyl-phenyl)-pyrimidine-5-carbonyl]-amino}-piperidine-1-carboxylic acid tert-butyl ester] had an EC50 of 0.109 µM. For the compound `CC(C)(O)CNC(=O)c1ccc(-c2ncc(C(=O)N(C3CC3)C3CCN(C(=O)OC(C)(C)C)CC3)cn2)cc1F` [Example 154, 4-(Cyclopropyl-{2-[3-fluoro-4-(2-hydroxy-2-methyl-propylcarbamoyl)-phenyl]-pyrimidine-5-carbonyl}-amino)-piperidine-1-carboxylic acid tert-butyl ester], the EC50 was 0.508 µM. In turn, `CC(C)(C)OC(=O)N1CCC(N(C(=O)c2cnc(-c3ccc(C(=O)N4CCOCC4)c(F)c3)nc2)C2CC2)CC1` [Example 155, 4-(Cyclopropyl-{2-[3-fluoro-4-(morpholine-4-carbonyl)-phenyl]-pyrimidine-5-carbonyl}-amino)-piperidine-1-carboxylic acid tert-butyl ester] had a half-maximal effective concentration (EC50) of 0.448 µM. As for `COCc1cccc(NC(=O)c2ccc(-c3ncc(C(=O)N(C4CC4)C4CCN(C(=O)OC(C)(C)C)CC4)cn3)cc2F)c1` [Example 156, 4-(Cyclopropyl-{2-[3-fluoro-4-(3-methoxymethyl-phenylcarbamoyl)-phenyl]-pyrimidine-5-carbonyl}-amino)-piperidine-1-carboxylic acid tert-butyl ester], the response was half-maximal at 0.114 µM (EC50). On to `COC(C)CN(C)C(=O)c1ccc(-c2ncc(C(=O)N(C3CC3)C3CCN(C(=O)OC(C)(C)C)CC3)cn2)c(F)c1` (centres unmarked) [Example 157, 4-[Cyclopropyl-(2-{2-fluoro-4-[(2-methoxy-propyl)-methyl-carbamoyl]-phenyl}-pyrimidine-5-carbonyl)-amino]-piperidine-1-carboxylic acid tert-butyl ester], for which the EC50 worked out at 0.401 µM. Compound `CN(CC1CCOCC1)C(=O)c1ccc(-c2ncc(C(=O)N(C3CC3)C3CCN(C(=O)OC(C)(C)C)CC3)cn2)cc1F` [Example 158, 4-[Cyclopropyl-(2-{3-fluoro-4-[methyl-(tetrahydro-pyran-4-ylmethyl)-carbamoyl]-phenyl}-pyrimidine-5-carbonyl)-amino]-piperidine-1-carboxylic acid tert-butyl ester] gave an EC50 of 0.359 µM. This EC50 and that of the compound before are within 1.5-fold of each other. For `COc1ccc(NC(=O)c2ccc(-c3ncc(C(=O)N(C4CC4)C4CCN(C(=O)OC(C)(C)C)CC4)cn3)c(F)c2)cn1` [Example 159, 4-(Cyclopropyl-{2-[2-fluoro-4-(6-methoxy-pyridin-3-ylcarbamoyl)-phenyl]-pyrimidine-5-carbonyl}-amino)-piperidine-1-carboxylic acid tert-butyl ester] the value was 0.303 µM. Compound `COCCN(C)C(=O)c1ccc(-c2ncc(C(=O)N(C3CC3)C3CCN(C(=O)OC(C)(C)C)CC3)cn2)cc1F` [Example 160, 4-[Cyclopropyl-(2-{3-fluoro-4-[(2-methoxy-ethyl)-methyl-carbamoyl]-phenyl}-pyrimidine-5-carbonyl)-amino]-piperidine-1-carboxylic acid tert-butyl ester] registered a half-maximal effective concentration (EC50) of 0.229 µM. The EC50 values of the last two compounds are within 1.5-fold of each other. Take `CC(C)(C)OC(=O)N1CCC(N(C(=O)c2cnc(-c3ccc(C(=O)N4CCC[C@@H]4C#N)c(F)c3)nc2)C2CC2)CC1` [Example 161, 4-({2-[4-(2-Cyano-pyrrolidine-1-carbonyl)-3-fluoro-phenyl]-pyrimidine-5-carbonyl}-cyclopropyl-amino)-piperidine-1-carboxylic acid tert-butyl ester]: the EC50 was 0.278 µM. With `CC(C)(C)OC(=O)N1CCC(N(C(=O)c2cnc(-c3ccc(C(=O)NCc4cncnc4)c(F)c3)nc2)C2CC2)CC1` [Example 162, 4-[Cyclopropyl-(2-{3-fluoro-4-[(pyrimidin-5-ylmethyl)-carbamoyl]-phenyl}-pyrimidine-5-carbonyl)-amino]-piperidine-1-carboxylic acid tert-butyl ester] the figure was 0.501 µM; with `CC(C)(C)OC(=O)N1CCC(N(C(=O)c2cnc(-c3ccc(C(=O)N4CCC(C#N)C4)c(F)c3)nc2)C2CC2)CC1` (centres unmarked) [Example 163, 4-({2-[4-(3-Cyano-pyrrolidine-1-carbonyl)-3-fluoro-phenyl]-pyrimidine-5-carbonyl}-cyclopropyl-amino)-piperidine-1-carboxylic acid tert-butyl ester], 0.405 µM. For the compound `COC1CCN(C(=O)c2ccc(-c3ncc(C(=O)N(C4CC4)C4CCN(C(=O)OC(C)(C)C)CC4)cn3)cc2F)CC1` [Example 164, 4-(Cyclopropyl-{2-[3-fluoro-4-(4-methoxy-piperidine-1-carbonyl)-phenyl]-pyrimidine-5-carbonyl}-amino)-piperidine-1-carboxylic acid tert-butyl ester], the EC50 worked out at 0.221 µM.

The term EC50 denotes the concentration at which the effect is half-maximal. Read a low EC50 as an effect from little substance.
